Legend:
[1] = biological target: T1, recombinant human tau Tau-441(WT) (Homo sapiens, UniProt P10636); assay: Bio-layer interferometry (BLI) biosensor assay, tau WT; assay type: binding; settings: BLI steady-state analysis, immobilized biotinylated tau; Figure 1—figure supplement 1B
T1 construct: biotin (chemical label, NHS-PEG4); purchased SignalChem T08-54BN; host or cells: E. coli
Protocol: BLI was performed in the Octet Red384 instrument (ForteBio, Fremont CA, USA) with 1X PBS and 0.01% Brij-35 as the assay buffer. […] The biotinylated protein samples for BLI were purified in 1X phosphate buffered saline (PBS). Streptavidin (SA) sensors were used to measure the biophysical interaction between the small molecules and biotinylated tau. Prior to the initiation of BLI, the SA sensors were soaked by dipping in 200 μL of assay buffer in a 96-well Greiner Bio-One Black flat bottom plate (Greiner, Monroe NC, USA Cat.655209). The assay was performed in 80 μL volume in Greiner Bio-One 384-well black flat bottom PP plates (Greiner, Cat.781209) with an initial baseline step, followed by loading of 250 nM biotinylated tau protein. The small molecules samples and recombinant proteins were arranged in the 384-well plate according to a plate map recommended for the eight-channel mode kinetic analysis, where the sensors move from low to high concentration of small molecule samples. Subsequent steps included a second baseline (120 s), followed by association (240 s) and dissociation (240 s) cycles. […] When Req option is selected, Fortebio’s software calculates affinity constants based on the Req values determined from the curve fits. […]

[2] = biological target: T2, total tau (TAU5) in control-1 8330–8-RC1 neurons (Homo sapiens, UniProt P10636); assay: Western blot of total tau in control line 1 neurons; assay type: cell-based; settings: control line 1, western blot, 1 μM, 24 hr
T2 construct: modeling pathogenic tau species without the need for overexpression of heterologous genes; endogenous in cells; host or cells: 8330-8-RC1, MGH2069-RC1, CTR2-L17-RC2 human iPSC-derived neurons
T2 sequence (P10636 1-441 isoform P10636-8): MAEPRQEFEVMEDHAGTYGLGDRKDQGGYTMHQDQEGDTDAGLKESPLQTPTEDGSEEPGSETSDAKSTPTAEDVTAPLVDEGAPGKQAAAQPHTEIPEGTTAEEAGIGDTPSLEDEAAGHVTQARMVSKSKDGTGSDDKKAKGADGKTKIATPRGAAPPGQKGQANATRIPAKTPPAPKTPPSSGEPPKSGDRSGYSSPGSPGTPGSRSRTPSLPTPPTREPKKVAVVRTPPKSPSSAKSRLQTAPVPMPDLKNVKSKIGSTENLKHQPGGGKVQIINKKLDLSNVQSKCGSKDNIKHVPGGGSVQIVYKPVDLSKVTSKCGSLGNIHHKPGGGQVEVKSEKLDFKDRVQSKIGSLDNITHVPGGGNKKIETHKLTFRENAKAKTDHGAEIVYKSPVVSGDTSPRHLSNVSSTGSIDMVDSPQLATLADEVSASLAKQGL
Description: (§1) Cells from individuals carrying the tau risk variant A152T (c.1407G > A; NCBI RefSeq NM_001123066, rs143624519), the autosomal dominant mutation P301L (c.C1907T; NCBI NM_001123066, rs63751273), or age-matched non-mutant WT tau were employed in this study (Figure 2—source data 1). Dermal fibroblasts from the tau-P301L carrier and the healthy individual were generated from a skin biopsy from subjects within the MGH Frontotemporal Disorders Unit as part of the MGH Neurodegeneration Repository. Approval for human subjects’ work was obtained under a Partners/MGH-approved IRB Protocol (#2010P001611/MGH). […]
(§2) Neurons differentiated in six-well plates for 6 weeks were washed and collected in PBS, lysed in RIPA buffer (Boston Bio-Products, Boston, MA) supplemented with 2% SDS (Sigma), protease inhibitors cocktail (Roche Complete Mini tablets, Mannheim, Germany), and phosphatase inhibitors cocktail (Sigma), followed by water sonication (Bransonic Ultrasonic Baths, Thomas Scientific, Danbury, CT) and 20,000 g centrifugation for 20 min. Supernatants were transferred to new tubes and total protein concentration was quantified with the Pierce BCA Protein Assay Kit (ThermoFisher Scientific, Carlsbad, CA). […]

[3] = biological target: T3, P-tau S396 in control-1 8330–8-RC1 neurons (Homo sapiens, UniProt P10636); assay: Western blot of P-tau S396 in control line 1 neurons; assay type: cell-based; settings: control line 1, western blot, 1 μM, 24 hr
T3 construct: modeling pathogenic tau species without the need for overexpression of heterologous genes; endogenous in cells; host or cells: 8330-8-RC1, MGH2069-RC1, CTR2-L17-RC2 human iPSC-derived neurons
T3 sequence (P10636 1-441 isoform P10636-8): as above
Description: as §1, §2

T1 sequence (P10636 1-441 isoform P10636-8): as above

O=C(CCc1ccc2c(c1)[nH]c1ccncc12)NCCOCCOCCNc1cccc2c1C(=O)N(C1CCC(=O)NC1=O)C2=O (stereo not drawn) [QC-01–175]
Kd [1]: 1200 nM | degradation of tau [2]: unable to induce significant degradation | degradation of P-tau [3]: unable to induce significant degradation
